Experimental data: PubChem BioAssay (NCI)
Values joined by “and” are separate entries in the source; they are usually repeats but may differ in a detail not shown here. Equal entries are not always repeated.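 Compound exposure: 48 hours, 5 concentrations, 96-well plates. GI50: concentration for 50% inhibition of growth. The concentration for full growth arrest is given as TGI.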

Experiments:
Assay in all cases: NCI tumour cell line growth inhibition, 48 h
SNB-19 CNS = system: SNB-19 CNS
MALME-3M melanoma = system: MALME-3M melanoma
CCRF-CEM leukemia = system: CCRF-CEM leukemia
OVCAR-5 ovarian = system: OVCAR-5 ovarian
OVCAR-3 ovarian = system: OVCAR-3 ovarian
NCI-H226 lung = system: NCI-H226 lung
UO-31 renal = system: UO-31 renal
NCI-H460 lung = system: NCI-H460 lung
OVCAR-8 ovarian = system: OVCAR-8 ovarian
786-0 renal = system: 786-0 renal

What does the source list for [Cl][Cd][Cl]?
GI50 (SNB-19 CNS): > 44.1 µM and 49.9 µM; TGI (SNB-19 CNS): > 61 µM and 146 µM; GI50 (MALME-3M melanoma): 5.5 µM and > 34.7 µM and 3.68 µM; TGI (MALME-3M melanoma): > 49.4 µM and 9.41 µM; GI50 (CCRF-CEM leukemia): 20.7 µM and 9.08 µM; TGI (CCRF-CEM leukemia): 56.7 µM and 89.7 µM; GI50 (OVCAR-5 ovarian): > 61.9 µM and 99.2 µM; TGI (OVCAR-5 ovarian): 98.4 µM and 179 µM; GI50 (OVCAR-3 ovarian): 3.26 µM and 12.1 µM and 6.94 µM; TGI (OVCAR-3 ovarian): 8 µM and 25.9 µM and 15.3 µM; GI50 (NCI-H226 lung): > 44 µM and 11.9 µM; TGI (NCI-H226 lung): > 69.7 µM and 43.6 µM; GI50 (UO-31 renal): > 74 µM and 74.5 µM; TGI (UO-31 renal): 131 µM; GI50 (NCI-H460 lung): 1.44 µM and 4.53 µM and 1.16 µM; TGI (NCI-H460 lung): 17.6 µM and 24.9 µM; GI50 (OVCAR-8 ovarian): 119 µM; TGI (OVCAR-8 ovarian): 272 µM; GI50 (786-0 renal): 21 µM and 8.67 µM; TGI (786-0 renal): 44.4 µM and 17.6 µM

With CN1CC(=O)N(C)c2nc[nH]c2C1=O as the molecule, how does the TGI (SNB-19 CNS) read?
Its TGI is > 100 µM.

What about the TGI (MALME-3M melanoma) of the same molecule?
Its TGI is > 100 µM.

And the TGI (CCRF-CEM leukemia)?
The TGI was > 100 µM.

What about the TGI (OVCAR-5 ovarian) of the same molecule?
Its TGI is > 100 µM.

And the TGI (OVCAR-3 ovarian)?
Its TGI is > 100 µM.

And the TGI (NCI-H226 lung)?
The TGI was > 100 µM.

And the TGI (UO-31 renal)?
The TGI was > 100 µM.

What about the TGI (NCI-H460 lung) of the same molecule?
Its TGI is > 100 µM.

And the TGI (OVCAR-8 ovarian)?
The TGI was > 100 µM.

And the TGI (786-0 renal)?
The TGI was > 100 µM.

What does the source list for C=CCCCc1ccc(C(O)CCCCCCCCCCCC)o1 (stereo not given)?
GI50 (SNB-19 CNS): 17.7 µM; TGI (SNB-19 CNS): 32.8 µM; GI50 (MALME-3M melanoma): 26 µM; TGI (MALME-3M melanoma): 72.1 µM; GI50 (CCRF-CEM leukemia): 23.1 µM; TGI (CCRF-CEM leukemia): 56.8 µM; GI50 (OVCAR-5 ovarian): 15.9 µM; TGI (OVCAR-5 ovarian): 30.4 µM; GI50 (OVCAR-3 ovarian): 19 µM; TGI (OVCAR-3 ovarian): 38.8 µM; GI50 (NCI-H226 lung): 17.8 µM; TGI (NCI-H226 lung): 34.3 µM; GI50 (UO-31 renal): 16.3 µM; TGI (UO-31 renal): 30.3 µM; GI50 (NCI-H460 lung): 22 µM; TGI (NCI-H460 lung): 60.7 µM; GI50 (OVCAR-8 ovarian): 20.6 µM; TGI (OVCAR-8 ovarian): 44.9 µM; GI50 (786-0 renal): 15.2 µM; TGI (786-0 renal): 28.5 µM

For OCCN1CCN(CC/C=C2\c3ccccc3Sc3ccc(Cl)cc32)CC1, which GI50 (SNB-19 CNS) is on record?
Its GI50 is 2.45 µM and 4.49 µM.

What about the TGI (SNB-19 CNS) of the same molecule?
Its TGI is 6.43 µM and 10.4 µM.

What about the GI50 (MALME-3M melanoma) of the same molecule?
Its GI50 is 1.94 µM.

What about the TGI (MALME-3M melanoma) of the same molecule?
Its TGI is 3.8 µM.

What about the GI50 (CCRF-CEM leukemia) of the same molecule?
The GI50 was 1.61 µM and 3.29 µM.

And the TGI (CCRF-CEM leukemia)?
Its TGI is 4.58 µM and 11.9 µM.

What about the GI50 (OVCAR-5 ovarian) of the same molecule?
Its GI50 is 3.75 µM and 11.8 µM.

What about the TGI (OVCAR-5 ovarian) of the same molecule?
The TGI was 14.1 µM and 24.9 µM.

And the GI50 (OVCAR-3 ovarian)?
Its GI50 is 2.88 µM and 5.66 µM.

And the TGI (OVCAR-3 ovarian)?
Its TGI is 13.1 µM and 17.8 µM.

What about the GI50 (NCI-H226 lung) of the same molecule?
Its GI50 is 6.93 µM.

What about the TGI (NCI-H226 lung) of the same molecule?
The TGI was 22.1 µM.

And the GI50 (UO-31 renal)?
Its GI50 is 2.14 µM and 1.96 µM.

And the TGI (UO-31 renal)?
Its TGI is 7.66 µM and 6.24 µM.

What about the GI50 (NCI-H460 lung) of the same molecule?
The GI50 was 1.89 µM and 2.19 µM.

What about the TGI (NCI-H460 lung) of the same molecule?
The TGI was 3.75 µM and 4.5 µM.

And the GI50 (OVCAR-8 ovarian)?
The GI50 was 7.95 µM and 7.2 µM.

And the TGI (OVCAR-8 ovarian)?
The TGI was 28.3 µM and 19.8 µM.

And the GI50 (786-0 renal)?
Its GI50 is 1.82 µM and 3.06 µM.

What about the TGI (786-0 renal) of the same molecule?
Its TGI is 3.65 µM and 8.58 µM.

For C[C@H]1C(=O)CC[C@]2(C)CCC(C(C)(C)O)CC12O (stereo not given in full), which TGI (SNB-19 CNS) is on record?
Its TGI is > 100 µM.

And the TGI (MALME-3M melanoma)?
The TGI was > 100 µM.

What about the TGI (CCRF-CEM leukemia) of the same molecule?
Its TGI is > 100 µM.

What about the TGI (OVCAR-5 ovarian) of the same molecule?
The TGI was > 100 µM.

What about the TGI (OVCAR-3 ovarian) of the same molecule?
Its TGI is > 100 µM.

What about the TGI (NCI-H226 lung) of the same molecule?
The TGI was > 100 µM.

What about the TGI (UO-31 renal) of the same molecule?
The TGI was > 100 µM.

And the TGI (NCI-H460 lung)?
Its TGI is > 100 µM.

What about the TGI (OVCAR-8 ovarian) of the same molecule?
The TGI was > 100 µM.

And the TGI (786-0 renal)?
Its TGI is > 100 µM.

With CCC(=O)N/N=C(\C=C\c1cccc(O)c1)c1sc(Nc2ccc(C)cc2[N+](=O)[O-])nc1C as the molecule, how does the TGI (SNB-19 CNS) read?
Its TGI is > 100 µM.

And the TGI (MALME-3M melanoma)?
Its TGI is > 100 µM.

What about the TGI (CCRF-CEM leukemia) of the same molecule?
Its TGI is > 100 µM.

And the TGI (OVCAR-5 ovarian)?
Its TGI is > 100 µM.

What about the TGI (OVCAR-3 ovarian) of the same molecule?
Its TGI is > 100 µM.

What about the TGI (NCI-H226 lung) of the same molecule?
The TGI was > 100 µM.

What about the TGI (UO-31 renal) of the same molecule?
Its TGI is > 100 µM.

And the TGI (NCI-H460 lung)?
Its TGI is > 100 µM.

What about the TGI (OVCAR-8 ovarian) of the same molecule?
The TGI was > 100 µM.

What about the TGI (786-0 renal) of the same molecule?
The TGI was > 100 µM.

What does the source list for CC(C)CCN[C@@H]1CCc2cc(O)c(N3CC(=O)NS3(=O)=O)c(F)c2C1?
GI50 (SNB-19 CNS): > 100 µM; TGI (SNB-19 CNS): > 100 µM; GI50 (MALME-3M melanoma): > 100 µM; TGI (MALME-3M melanoma): > 100 µM; GI50 (CCRF-CEM leukemia): > 100 µM; TGI (CCRF-CEM leukemia): > 100 µM; GI50 (OVCAR-5 ovarian): > 100 µM; TGI (OVCAR-5 ovarian): > 100 µM; GI50 (OVCAR-3 ovarian): > 100 µM; TGI (OVCAR-3 ovarian): > 100 µM; GI50 (NCI-H226 lung): > 100 µM; TGI (NCI-H226 lung): > 100 µM; GI50 (UO-31 renal): 16.8 µM; TGI (UO-31 renal): > 100 µM; GI50 (NCI-H460 lung): > 100 µM; TGI (NCI-H460 lung): > 100 µM; GI50 (OVCAR-8 ovarian): > 100 µM; TGI (OVCAR-8 ovarian): > 100 µM; GI50 (786-0 renal): > 100 µM; TGI (786-0 renal): > 100 µM

For O=C(NS(=O)(=O)c1ccccc1)C(Cc1ccccc1)C(Cc1ccccc1)C(=O)NS(=O)(=O)c1ccccc1 (stereo not given), which TGI (SNB-19 CNS) is on record?
Its TGI is > 100 µM.

And the TGI (MALME-3M melanoma)?
Its TGI is > 100 µM.

And the TGI (CCRF-CEM leukemia)?
The TGI was > 100 µM.

And the TGI (OVCAR-5 ovarian)?
Its TGI is > 100 µM.

And the TGI (OVCAR-3 ovarian)?
The TGI was > 100 µM.

What about the TGI (NCI-H226 lung) of the same molecule?
Its TGI is > 100 µM.

And the TGI (UO-31 renal)?
Its TGI is > 100 µM.

And the TGI (NCI-H460 lung)?
Its TGI is > 100 µM.

What about the TGI (OVCAR-8 ovarian) of the same molecule?
Its TGI is > 100 µM.

And the TGI (786-0 renal)?
The TGI was > 100 µM.
